Test system: mice
Test: tail-flick test, analgesic effect (nociceptive response) after intravenous injection
Assay type: in vivo
Conditions: i.v. dalargin 7.5 mg/kg, comparison data originate from an earlier experiment
Procedure: The preparation was applied to mice […] at a dosage of 7.5 mg/kg of dalargin. This corresponds to an application amount of 200 μl of the aforementioned preparation per mouse, based on an average body weight of a mouse of 20 g.
The analgesic effect (nociceptive response) was determined by the tail-flick test, in which a hot beam of light is projected onto the tail of the mouse and the time until the mouse draws away its tail is measured. After 10 seconds (=100% MPE) the experiment was truncated so as not to cause injury to the mouse. The maximally possible analgesic effect (MPE) was determined in accordance with the following formula: [formula]
Negative MPE values result if after administration of the administration the mouse draws away its tail before the treatment.
With the aid of dalargin-loaded avidin-modified HSA nanoparticles the analgesic effects indicated in Table 1 were obtained after intravenous injection.

dalargin [Dalargin solution]
Analgesic effect [% MPE] (30 min): 10.0 ± 9.8 % MPE | Analgesic effect [% MPE] (45 min): 9.3 ± 2.8 % MPE | Analgesic effect [% MPE] (90 min): 4.7 ± 5.1 % MPE | Analgesic effect [% MPE] (120 min): 2.0 ± 6.1 % MPE
